Data: ChEMBL document CHEMBL3507680, “University of Dundee, Gates Library screen for HepG2 cell viability”

Experiment: Human HepG2 cell viability assay in 384 well format
Assay type: toxicity, cell-based
Set-up: dose 125 nL, time 70.5 hour; cytotoxicity at 70.5 h: concentration not given beside the values
Conditions: HepG2 cells, read-out: Inhibition

SMILES | cytotoxicity at 70.5 h [%]
Cc1noc(C(C)C)c1C(=O)NCC(c1ccccc1)N(C)C (stereo unspecified) | -8.37
OC(CN1CCC(c2ccn[nH]2)CC1)c1ccccc1F (stereo unspecified) | -4.73
Cc1ccnn1-c1ccc(C(=O)N2CCCC(n3ccnc3)C2)cc1 (stereo unspecified) | -7.39
CC(C)c1n[nH]c(C(=O)NC(C)c2ccncc2)c1Br (stereo unspecified) | -2.63
CN1CC(C(=O)Nc2ccc(OCC(F)(F)C(F)F)nc2)CC1=O (stereo unspecified) | -7.73
Cc1cccc(NC(=O)c2[nH]nc(C(C)C)c2Br)n1 | 23.8
O=C(CCc1ccsc1)N1CCCC(n2cncn2)C1 (stereo unspecified) | -11.8
COc1ccc(CCC(=O)N2CCCC(n3cncn3)C2)cc1 (stereo unspecified) | -7.91
CS(=O)(=O)c1ccc(C(=O)N2CCCC(n3ccnc3)C2)cc1 (stereo unspecified) | -10.2
N#Cc1ccc(CCC(=O)N2CCCC(n3cncn3)C2)cc1 (stereo unspecified) | -8.59
Cc1cc(C2CCCN(CCCS(N)(=O)=O)C2)n[nH]1 (stereo unspecified) | -5.94
Cc1cc(NC(=O)NCC(c2ccc(C)o2)N2CCOCC2)n(C)n1 (stereo unspecified) | 21
Cc1[nH]ncc1C(=O)N1CCCC1c1noc(C2CC2)n1 (stereo unspecified) | 19.4
Cc1cnn(CC2CCCN2Cc2nc(C)c3ccccc3n2)c1 (stereo unspecified) | 1.46
CCN1CCN(C(=O)c2cccn2Cc2ccccc2)CC1 | -0.982
Cc1cnn(CC2CCCCN2Cc2nc(C)c3ccccc3n2)c1 (stereo unspecified) | -1.81
Cc1cnn(CC2CCCN2Cc2nc3ccccc3c(=O)[nH]2)c1 (stereo unspecified) | -7.22
Fc1cccc(-n2ccc(CN3CCCC3Cn3cncn3)n2)c1 (stereo unspecified) | -9.03
Cc1cnn(CC2CCCN2C(=O)c2n[nH]c3ccccc23)c1 (stereo unspecified) | -6.9
Cc1cccc(C(=O)N2CCCC(c3noc(C)n3)C2)n1 (stereo unspecified) | -1.99
CCc1c(C(=O)NCC2CCS(=O)(=O)C2)cnn1-c1ccccc1 (stereo unspecified) | -4.41
CC(=O)N1CCN(C(=O)CCCc2nnc(-c3ccccc3)o2)CC1 | -2.32
Cc1ccc(-n2ncc(C(=O)NCC3CCS(=O)(=O)C3)c2C)cc1 (stereo unspecified) | -4.72
Cc1cc(CN2CCN(C(=O)NCc3ccco3)CC2)no1 | 18.9

SMILES | cytotoxicity at 70.5 h [%]
CCc1ccc(CNC(=O)N2CCN(Cc3cc(C)on3)CC2)s1 | -4.93
CC(C)c1nc(CN2CCC(c3ccnn3CCO)CC2)no1 | 19.5
OCCn1nccc1C1CCN(Cc2nc(C3CC3)no2)CC1 | -1.33
O=C(CCc1nnc(-c2ccccc2)o1)N1CCN(CC2CC2)CC1 | 1.86
O=C(Cc1n[nH]c2ccccc12)N1CCCC1Cn1cccn1 (stereo unspecified) | 0.964
Fc1cccc(-c2nc(CN3CCCC(Cn4cncn4)C3)co2)c1 (stereo unspecified) | 16.1
Cc1nsc2ncc(C(=O)N3CCCC3c3cnn(C)c3)cc12 (stereo unspecified) | -0.553
O=c1[nH]c(CCN2CCCCC2Cn2cccn2)nc2ccccc12 (stereo unspecified) | -1.7
CCc1nc(C2CCCN(C(=O)c3cc(C(C)C)[nH]n3)C2)no1 (stereo unspecified) | -3.59
Cc1nccn1CC1CCCN1S(=O)(=O)Cc1ccc(F)cc1 (stereo unspecified) | -0.149
Cc1nc(C2CCCN(C(=O)c3ccc(N4CCCC4)nn3)C2)no1 (stereo unspecified) | 0.493
Cc1nc(C2CCCN(C(=O)c3ccc(Cl)cn3)C2)no1 (stereo unspecified) | -5.54
Cc1cc(C(=O)N2CCCC2c2noc(C)n2)[nH]n1 (stereo unspecified) | 1.6
Cn1cc(C(=O)N2CCCC2c2noc(C3CC3)n2)c2ccccc21 (stereo unspecified) | -3.41
c1ccc(Cn2cc(CNCC3CNc4ccnn4C3)cn2)cc1 (stereo unspecified) | 32.4
Cc1cccc(-c2nc(CN3CCc4cncnc4C3)no2)c1 | -4.67
O=C(c1ccn(-c2cccc(Cl)c2)n1)N1CCN(CCO)CC1 | 0.676
CC(=O)Nc1nc(C(=O)N2CCCC2c2noc(C3CC3)n2)cs1 (stereo unspecified) | -3.64
c1cc(CNCC2CNc3ccnn3C2)cc(Cn2cccn2)c1 (stereo unspecified) | 4.46
CCc1nc(C2CCCN2C(=O)c2csc(NC(C)=O)n2)no1 (stereo unspecified) | -1.48
CC(C)Oc1ncccc1CNC(=O)N1CCCC1c1ccsc1 (stereo unspecified) | -0.144
Cc1ncsc1C(=O)NC1CCN(Cc2ccc(C(N)=O)cc2)CC1 | 1.08
Cc1cc2n(n1)CC(CNCc1ccccc1Cn1cccn1)CN2 (stereo unspecified) | 4.35
OCc1ccccc1CNCC1CNc2ccnn2C1 (stereo unspecified) | -1.22

SMILES | cytotoxicity at 70.5 h [%]
N#Cc1ccc(OCCN2CCc3cncnc3C2)cc1 | 0.4
Cc1nnc2n1CCN(CCS(=O)(=O)c1ccc(Cl)cc1)C2 | 2.97
CC(C)(O)CN1CCN(C(=O)c2cccc(CC#N)c2)CC1 | 1.57
CC(C)c1nnc(CN2CCN(CC(O)c3ccccc3)CC2)o1 (stereo unspecified) | -0.811
O=C(c1cc2cc(F)ccc2[nH]1)N1CCCCC1Cn1cccn1 (stereo unspecified) | -0.801
CC(O)CN1CCN(C(=O)c2ccn(-c3ccc(F)cc3)n2)CC1 (stereo unspecified) | -3.45
CC(C)c1nnc2n1CCN(CCS(=O)(=O)c1ccccc1)C2 | -2.01
CC(C)(C(N)=O)N1CCN(C(=O)c2ccn(-c3cccc(Cl)c3)n2)CC1 | -0.38
Cc1cc(NC(=O)CN2CCc3cnc(C(C)C)nc3C2)on1 | -1.61
Cc1ccc(-c2nc(CN3CCc4cnc(C)nc4C3)no2)cc1 | 0.992
CCc1nc(CN2CCN(C(=O)N3CCCCC3)CC2)cs1 | 21.4
CCOC(C)C(=O)N1CCCN(Cc2csc(CC)n2)CC1 (stereo unspecified) | 22.4
CCc1nc(CN2CCCN(C(=O)CC(C)OC)CC2)cs1 (stereo unspecified) | 51.7
CN(Cc1cccnc1)C(=O)NC1CCN(Cc2ccccn2)CC1 | 0.886
CC(c1ccc(F)cc1F)N1CCN(Cc2nccn2C)CC1 (stereo unspecified) | -0.0589
CC(C)n1ccc(CN2CCOC(CNc3cccnn3)C2)n1 (stereo unspecified) | 3.22
CC(C)(C)c1noc(CCCC(=O)NCC2CCS(=O)(=O)C2)n1 (stereo unspecified) | 0.495
CC(C)c1noc(CCC(=O)NCC2CC2)n1 | 23.5
Cc1cc(C)cc(OCCC(=O)N2CCOCC2c2ncon2)c1 (stereo unspecified) | 5.7
Cc1cc(CN2CCOC(CN(C)C)C2)no1 (stereo unspecified) | 9.18
CCc1nc(CC(=O)N2CCOCC2c2ncon2)cs1 (stereo unspecified) | -3.4
Fc1ccc(CN2CCCC2Cn2cccn2)c2ncccc12 (stereo unspecified) | -10.6
Cc1ccc(-c2noc(CN3CCOC(CN(C)C)C3)n2)cc1F (stereo unspecified) | -0.0729
CN(CC1CCCO1)C1CCN(CCc2ccccn2)CC1 (stereo unspecified) | -6.95

SMILES | cytotoxicity at 70.5 h [%]
CC1CN(CC(=O)Nc2nncs2)CCN1c1nccs1 (stereo unspecified) | -9.27
c1ccc(CCCN2CC(n3cccn3)C2)cc1 | -2.22
Cc1nn(C)c(C)c1C1CCCN1Cc1nc(-c2ccco2)oc1C (stereo unspecified) | -2.24
Cc1cc(C)cc(C2(C(=O)N3CCCC(n4cncn4)C3)CC2)c1 (stereo unspecified) | -17.8
Cc1nc(CN(C)C2CCN(CC(=O)N3CCOCC3)C2)no1 (stereo unspecified) | -12.6
Cc1nn(C)c(C)c1C1CCCN1Cc1nc(-c2ccco2)no1 (stereo unspecified) | -19.8
Cc1cnn(CC2CCCN2CCCc2nc3ccccc3o2)c1 (stereo unspecified) | -16.1
O=C(NCc1ccccn1)NC1CCOc2ccccc21 (stereo unspecified) | 20.6
O=C(NCc1ccco1)C1CCCN1Cc1nc(-c2ccco2)no1 (stereo unspecified) | -15.9
CC(C)c1noc(CN2CCN(C(=O)c3ccccc3F)CC2)n1 | -18.6
CC(C)c1ccc(O)c(C(=O)N2CCN(Cc3cscn3)CC2)c1 | -15.1
Cc1c[nH]cc1C(=O)N1CCN(Cc2nc(C(C)C)no2)CC1 | -15.1
Cc1cc(C)cc(NC(=O)CN2CCCC(n3cncn3)C2)c1 (stereo unspecified) | -3.52
Cc1nnc2n1CCN(Cc1csc(CC(=O)N(C)C)n1)C2 | -13.5
Cc1nnc2n1CCN(Cc1csc(Cc3ccccc3)n1)C2 | -34.1
N#Cc1ccc(N2CCN(C(=O)c3cc(C4CC4)[nH]n3)CC2)c(F)c1 | -8.69
Cc1ccc(-n2nnc(C(=O)Nc3cc(C)nn3C)c2C2CC2)cc1 | 0.219
Cc1c(C(=O)N2CCCC2c2cnn(C)c2)nnn1-c1ccccc1 (stereo unspecified) | -7.15
Cc1ccc(-n2nnc(C(=O)NS(C)(=O)=O)c2C2CC2)cc1 | -9
COc1ncccc1CNC(=O)NC1CCOc2ccccc21 (stereo unspecified) | -13.3
Cc1nc2cc(C(=O)N3CCCC(n4cncn4)C3)ccc2n1C (stereo unspecified) | 22.7
Cc1cc(C)cc(OCCC(=O)N2CCCC(n3cncn3)C2)c1 (stereo unspecified) | -15.5
COc1cc(C(=O)NS(=O)(=O)c2cccc(C#N)c2)cc(Cl)c1OC | -8.04
Cc1cnc(CN2CCCC(c3cc(C(N)=O)[nH]n3)C2)o1 (stereo unspecified) | 9.27

SMILES | cytotoxicity at 70.5 h [%]
CCc1[nH]ncc1C(=O)N1CCCN(Cc2cnn(C(C)C)c2)CC1 | 6.52
CCN(Cc1ccc2c(c1)OCO2)Cc1nc(C)no1 | -20.4
CC1COCCN1Cc1nc(-c2cccs2)no1 (stereo unspecified) | -31
CC(C)(NCC(=O)NCC(F)(F)F)c1ccc2c(c1)OCCO2 | -16.8
CC(C)(C)NC(=O)NC(=O)CNC(C)(C)c1ccc2c(c1)OCCO2 | -16.2
CC(C)(C)c1nnc(CN2CCCC(c3cc(C(N)=O)[nH]n3)C2)o1 (stereo unspecified) | 10.9
COc1cccc2cc(CNCc3ccnc(N4CCOCC4)c3)oc12 | 11.7
Cn1ccc(C(=O)NC2CCN(c3ncccn3)CC2)cc1=O | -15.3
COc1ccc(-c2noc(CN3CCOCC3C)n2)cc1OC (stereo unspecified) | -10.5
COc1ccc(CNCc2ccnc(N3CCOCC3)c2)c(OC)c1 | -10.2
CC(C)(C)C(=O)NS(=O)(=O)c1ccc(C#N)cc1C(F)(F)F | -14.8
CCc1nccn1C1CCCN(C(=O)CCc2nccs2)C1 (stereo unspecified) | -15.8
COc1ccccc1N1CCC(CNCc2cccc(O)c2)C1 (stereo unspecified) | 8.44
Cc1nn(C)c(Cl)c1C1CCCN1C(=O)c1cc[nH]n1 (stereo unspecified) | -13
Cc1nn(C)c(Cl)c1C1CCCN1C(=O)c1ccc2nncn2c1 (stereo unspecified) | 5.97
CC(NCc1ccccc1Br)c1ccc2[nH]c(=O)[nH]c2c1 (stereo unspecified) | 3.35
c1cnnc(N2CCCC(NCc3nnc(-c4ccco4)o3)C2)c1 (stereo unspecified) | 3.16
CN(C)c1cc(CNC(=O)Nc2ccc(F)cc2)ccn1 | 12.6
COc1ncccc1CNC(=O)c1cccc(C)n1 | 11.1
CC1CCCN(C(=O)c2cccc(CS(C)(=O)=O)c2)C1 (stereo unspecified) | 7.89
